Patent US12090166B2, “Pharmaceutical composition for preventing or treating dentin-dental pulp disease or periodontal disease, containing LPAR2 inhibitor” (PUSAN NATIONAL UNIVERSITY INDUSTRY-UNIVERSITY COOPERATION …, priority 2018, dated 2024)
“Also recorded” adds a separate entry of the source.

Key:
[1] = system: human-derived dental pulp stem cells; assay: Real-time PCR analysis of differentiation genes; format: cell-based; settings: 1 μM once every 3 days, 7 days in bone differentiation medium
Method: As in Example 2-2, human-derived dental pulp stem cells were differentiated for 7 days, 14 days and 21 days in a bone differentiation induction culture medium. Beck 35 was added to the bone differentiation medium at a concentration of 1 μM once every 3 days to differentiate for a week. Those maintained with the human-derived dental pulp stem cells, induced differentiation for 7 days, 14 days and 21 days with bone differentiation medium, and induced differentiation for 7 days in bone differentiation medium containing Beck 35 was used to isolate total RNA with Trisure (Bioline, UK) and reverse transcription to cDNA was performed using HelixCript™ Thermo Reverse Transcriptase (NanoHelix, Korea, Daejeon, Korea). The synthesized cDNA was performed using the primers of Table 1 and Power SYBR Green PCR Master Mix. The data analysis was determined using the delta Ct method.

[2] = system: human-derived dental pulp stem cells; assay: Cell viability measurement (MTT method); format: cell-based; settings: 24 hours; for proliferation of human-derived dental pulp stem cells (cell viability, MTT): expansion medium, vs control
Method: Cell viability measurement was evaluated by the 3-(4,5-dimethylthiazol-2-yl)-2,5-diphenyl-2H-tetrazolium bromide (MTT) method. Human-derived dental pulp stem cells were coated with 0.2% gelatin one day before culture. On the day of incubation, 0.2% gelatin was removed from the 48-well plate and washed once with PBS. In 48-well plates, human-derived dental pulp stem cells (4×10^5 cells/ml) were cultured in Miltenyi Stem MACS MSC Expansion Media Kit XF medium containing 100 μg/ml streptomycin and 100 μg/ml penicillin. Beck 35 was evaluated at various concentrations (0, 0.1, 1 and 1.0 μg/ml) for 24 hours at 37° C. in an atmosphere of 5% CO2 and 95% humidity. Then, the cells were incubated with 0.5 mg/ml MTT (SIGMA, USA) for 3 hours, and the reaction was stopped by adding dimethyl sulfoxide (DMSO, JUNSEL, Japan). Results were obtained at 560 nm using an ELISA reader. The cell viability of the control cells was used as a 100% control value.
In addition, human-derived dental pulp stem cells were cultured in bone differentiation inducing medium (10% fetal bovine serum, […] dexamethasone, 10 mM β-glycerophosphate and 50 mM ascorbic acid) for 24 hours to induce the differentiation and various concentrations (1, 5 and 1.0 μM/ml) of Beck 35 were treated during differentiation.

[3] = system: human-derived dental pulp stem cells; assay: Electron microscope analysis after bone differentiation; format: cell-based; settings: bone differentiation medium with vs without Beck 35
Method: As in Example 2-2, human-derived dental pulp stem cells were cultured in a culture medium for inducing bone differentiation with or without Beck 35, an inhibitor of LPAR2, to induce bone differentiation, and then observed by an electron microscope.

tooth germ mesenchyme = assay: Real-time PCR analysis of in vitro cultured tooth germ mesenchyme; format: cell-based, mouse; settings: 24 hours, 5 μM, vs control group
Method: (§1) Experimental animals were carried out using mouse ICR-based male 8 week-old mice. After anesthesia is performed by administering intraperitoneally Zoletil (Virbac, Carros, France) and Rompun (Bayer, Berlin, Germany), which are anesthetic inducing agents according to the weight, an experiment was conducted to expose the pulp cavity for the maxillary right first molars. To confirm the change in gene expression, an experiment was conducted on the developing 14th day pregnant embryo. ICR-based female mice whose pregnancy was confirmed were sacrificed in the morning of the 14th day after pregnancy, and then embryos were obtained and the tooth germ of the lower jaw was finely dissected under a stereoscopic microscope, and the tooth germ tissue was placed on the lid of a 35 mm diameter Petri dish for experimentation together with the culture solution and cultured in a 5% carbon dioxide incubator at 37° C. for 24 hours with or without Beck 35 drug administration.
In order to confirm the change in gene expression by Beck 35 drugs, in vitro culture was performed by microdissecting the tooth germ at the 14th day of the embryonic period, and the group treated with the drug for 24 hours was set as the experimental group, and the untreated tissue was set as the control group, and changes in gene expression were confirmed by real-time PCR analysis. After RNA was obtained from the cultured tissue, the first strand cDNA was synthesized and the expression level was confirmed by real-time PCR for genes known to be important for dentin formation until now.

[4] = system: exposed pulp cavity of mouse molars; assay: Pulp cavity exposure animal model (H&E, MTC, micro-CT, immunohistochemistry); format: in vivo
Method: as §1, with “After” for “Experimental animals were carried out using mouse ICR-based male 8 week-old mice. After”
In order to prepare tissue sections, mice were sacrificed after a certain experimental period in the experimental group and the control group, fixed in 4% paraformaldehyde, washed with phosphate buffer solution, and demineralized in 0.1 M EDTA chelate solution. Demineralization proceeded for 4 weeks, and after demineralization, it was embedded in wax, cut to a thickness of 7 micrometers, and smeared on a glass slide to perform conventional hematoxylin and eosin staining.
MTC staining was performed to confirm the synthesis of collagen protein and formation of mineralized tissue. After staining the nucleus with hematoxylin for the tissue on the glass slide produced through the normal tissue sectioning process and if the entire tissue is stained with a mixed dyeing solution designed to perform cytoplasmic staining with biebrich scarlet and muscle fibers staining with acid fuchsin, all of collagen fibers, muscle fibers and cytoplasm can be observed by staining red.
Microcomputerized tomography was performed to confirm the hard tissue regenerated by the drug. The lower jaw tissue fixed in 4% paraformaldehyde was observed using Skyscan1272 (Bruker, Kontich, Belgium), and 2 micrometers pixels were photographed at 4904×3280 resolution for the entire 360 degree, and the image was reconstructed in 3D with a data viewer and then the degree of hard tissue formation was objectively analyzed by analyzing with the CTAn (Bruker) program.
While observing the oral cavity of anesthetized mice under a stereoscopic microscope, a pulp cavity exposure experiment was performed on the upper right first molar, and the left upper first molar was used as a untreated control. While observing with a stereoscopic microscope, using a round burr having 0.6 mm diameter connected to a high-speed handpiece, the enamel and dentin was exposed to be perpendicular to the occlusal surface, and when necessary, water was sprayed to minimize tissue damage. Afterwards, the Beck 35 drug was mounted on Pluronic F127 and delivered to the exposed pulp cavity. Only Pluronic F127 was delivered to confirm as a control. After the delivery of the Beck 35 drug to the pulp cavity, the doubly exposed pulp cavity was covered with Dycal (Dentsply Caulk, Milford, DE) and a […] composite resin. Thereafter, on the 3rd, 5th and 42nd days, the changes were confirmed by histological and microcomputed tomography techniques.
To confirm the expression of the protein, the expression pattern of NESTIN, a protein specific for odontoblasts, was confirmed by immunohistochemistry using tissue sections from the control and treatment groups. The expression of the protein was confirmed based on the antigen-antibody reaction, and the positive reaction of the protein was confirmed as brown with 3,3′-diaminobenzidine.

[5] = system: dental papilla mesenchyme; assay: Real-time PCR analysis of in vitro cultured dental papilla mesenchyme; format: cell-based, mouse; settings: 24 hours, vs control group
Method: as §1
In order to confirm the change in gene expression by Beck 35 drugs, in vitro culture was performed by microdissecting the tooth germ at the 14th day of the embryonic period, and the group treated with the drug for 24 hours was set as the experimental group, and the untreated tissue was set as the control group, and changes in gene expression were confirmed by real-time PCR analysis. […]

[6] = system: human-derived dental pulp stem cells; assay: Extracellular matrix calcification by Alizarin Red S staining during bone differentiation; format: cell-based; settings: for calcification (Alizarin Red S staining): 0, 1, 5 and 1.0 μM/ml in bone differentiation induction medium
Method: Human-derived dental pulp stem cells (4×10^5 cells/ml) were cultured in Miltenyi Stem MACS MSC Expansion Media Kit XF medium containing 100 μg/ml streptomycin and 100 μg/ml penicillin, followed by culturing in bone differentiation induction medium (10% fetal bovine serum, […] dexamethasone, 10 mM β-glycerophosphate, and 50 mM ascorbic acid). Beck 35 (LPAR2 inhibitor) and LPA were added to the bone differentiation induction medium at various concentrations (0, 1, 5 and 1.0 μM/ml). […] In order to quantify the degree of staining, the absorbance was measured at 562 nm after dissolving in 10% (WN) cetylpyridinium chloride and 10 mM sodium phosphate (pH 7.0) solution.
Human-derived dental pulp stem cells (4×10^5 cells/ml) were cultured in Miltenyi Stem MACS MSC Expansion Media Kit XF medium containing 100 μg/ml streptomycin and 100 μg/ml penicillin, and differentiation was induced for 14 days by changing to the bone differentiation induction medium. To the bone differentiation induction medium, RP10-83, an agonist of LPAR2 and H2L5186303, an antagonist of LPAR2 were added at various concentrations (0, 1, and 10 μM/ml). The cells in which bone differentiation was induced were washed twice with PBS, fixed with 70% ethanol at 4° C. for 1 hour, stained with 40 mM Alizarin Red S (pH 4.2, Sigma Co.) solution for 10 minutes, and then washed with distilled water sufficiently. In order to quantify the degree of staining, the absorbance was measured at 562 nm after dissolving in a 10% (WN) cetylpyridinium chloride and 10 mM sodium phosphate (pH 7.0) solution.
Human-derived dental pulp stem cells (4×10^5 cells/ml) were cultured in a growth medium without antibiotics. 50 nM of LPAR2 si-RNA was transfected using jetPRIME (Polyplus Transfection) according to the manufacturers protocol. As a control, non-targeting siRNA (SEQ ID NO: 1: […]) was transfected. The differentiation of the cells was induced for 7 days after changing to bone differentiation induction medium. […]

[7] = after 3 and 5 days, vs control group
[8] = after 42 days, vs control group

Cc1csc2c(N[C@@H](C)CN3CCN(S(=O)(=O)c4ccc(Cl)c(Cl)c4)CC3)ncnc12 [Beck 35]
expression level of DMP-1 (dentin matrix protein 1) [1]: Increased
expression level of DSPP (dentin sialophosphoprotein) [1]: Increased
expression level of Runx2 (runt-related transcription factor 2) [1]: Increased
expression level of osteopontin [1]: Increased
proliferation of human-derived dental pulp stem cells (cell viability, MTT) ([2]; 10 μM/ml): promoted the proliferation
proliferation of human-derived dental pulp stem cells (cell viability, MTT) ([2]; 0.1 and 1 μM/ml): not different from the control
proliferation of human dental pulp stem cells during differentiation ([2]; 1, 5 and 1.0 μM/ml, bone differentiation inducing medium): inhibited the proliferation
cell morphology by electron microscope [3]: relatively long-shaped cells
expression of Axin2 (Wnt signaling) (tooth germ mesenchyme): reduced
expression of Bmp2 (tooth germ mesenchyme): reduced
expression of Bmp4 (tooth germ mesenchyme): reduced
expression of Bmp6 (tooth germ mesenchyme): reduced
expression of Bmp7 (tooth germ mesenchyme): reduced
expression of Lef1 (Wnt signaling) (tooth germ mesenchyme): reduced
expression of beta-Catenin (Wnt signaling) (tooth germ mesenchyme): reduced
blood vessel distribution (MTC staining) ([4]; 3 and 5 days later): same blood vessel distribution as the HE staining result
number of cells in which the inflammatory cells and the nucleus were thickly condensed (MTC staining) ([4]; 3 and 5 days later): small
dentin bridge formation (micro-CT) ([4]; 42 days after pulp cavity exposure, vs control group): dentin bridge was formed; also recorded: perfect dentin bridge was regenerated
dentin regeneration, morphological ([4]; Beck 35 5 μM in exposed pulp cavity, maxillary molar of 8-week-old B6 mice): perfectly formed dentin bridge
NESTIN expression in pulp cavity periphery (immunohistochemistry) [4, 7]: more positive reactions
RUNX2 expression in pulp cavity periphery (immunohistochemistry) [4, 7]: more positive reactions
blood vessels in pulp cavity (H&E) [4, 7]: more tissues were observed as blood vessels
staining of cell nuclei in the pulp cavity (H&E) [4, 7]: stained lighter than the control group
formation of calcified dentin bridge (MTC staining) [4, 8]: formation of calcified dentin bridge was confirmed
formation of dentin bridge (H&E) [4, 8]: formation of dentin bridge was clearly observed
new collagen fibers in pulp cavity (HE and MTC staining) ([4]; after treating exposed pulp cavity): new collagen fibers seen as pulp cavity internal tissue were confirmed
number of inflammatory cells (H&E) ([4]; treatment group vs control group): in the control group, the number of inflammatory cells was observed higher than that of the treatment group
staining of enamel matrix ([4]; vs control group (dispersed and pale dyed)): dyed dark red
expression of Bmp6 [5]: increased
overall gene expression [5]: overall gene expression increased
calcification (Alizarin Red S staining) [6]: promoted the calcification in a concentration-dependent manner

O=C(O)/C=C\C(=O)Nc1ccc(Oc2cccc(Oc3ccc(NC(=O)/C=C\C(=O)O)cc3)c2)cc1 [H2L5186303]
bone differentiation (Alizarin Red S staining) ([6]; 0, 1, and 10 μM/ml, differentiation induced for 14 days): promoted bone differentiation

lysophosphatidic acid [LPA]
calcification (Alizarin Red S staining) [6]: did not undergo the calcification
